For assay [1], the target named is T1, GSK3β (Homo sapiens, UniProt P49841).
T1 construct: purchased Carna Biosciences
The assay can be described thus: GSK3β kinase assay (TR-FRET / Lance HTRF). As to conditions: for inhibition at 0.5 µM: 0.5 μM compound; for inhibition at 5 µM: 5 μM compound; for IC50: Table 1, means ± SD (n = 2). Format: biochemical.
Protocol: The GSK3β inhibitory activities of the virtually-selected 3000 compounds were screened by a Lance HTRF assay. At a concentration of 10 μM, the single-point screening signal-to-noise (S/N) ratio, Z factor, and Z’ factor of the assay was 7.3, 0.48 and 0.61, respectively.

The target of assay [2] is T1, GSK3β. The assay can be described thus: Five-by-five-concentration kinetic analysis of GSK3β inhibition versus ATP (Lineweaver–Burk). The class given is biochemical.
In assay [3] the test system is Wnt/β-catenin signaling. The assay can be described thus: HEK293 TOP flash reporter assay. The class given is cell-based. Particulars: 5 µM, HEK293 TOP flash reporter cells, 18 h. The method, then: The pharmacologic inhibition of GSK3β’s activity can lead to β-catenin stabilization and subsequently activate Wnt/β-catenin signaling. To measure the inhibitory activities of the compounds selected in GSK3β enzyme-based high-throughput screening, these were treated in HEK293 TOP flash reporter cells at various concentrations.
The HEK293 reporter cells (HEK293 cells containing the chromosomally incorporated TOPflash gene) were provided by KY Choi (Yonsei University, Seoul, Korea). The HEK293 reporter cells were cultured in DMEM (Gibco) supplemented with 10% FBS (Gibco). To test the activates of GSK3β inhibition for hit compounds, HEK293 reporter cells were seeded into 96-well black polystyrene plates (Greiner Bio-One, Kremsmünster, Austria) at 1.5 × 10^4 cells per well and cultured for 24 h. Hit compounds, a positive control (CHIR99021, SelleckChem, Houston, TX, USA) or control (DMSO) were added to the wells at the indicated concentrations. After 18 h, the plates were assayed for firefly luciferase activity; relative reporter activity was determined after the data were normalized relative to the value of the WST-1 (Takara Korea Biomedical Inc., Seoul, Korea) cell viability analysis. Statistical analyses were performed using Prism 8 (GraphPad Software). […]

Assay [4] deals with T1, GSK3β. The assay can be described thus: Reversibility assay (dilution method). The class given is biochemical. As to conditions: pre-incubated with 1 µM for 30 min, then diluted. How it is done: Figure 3 In vitro assay. […] (b) Competitive inhibition by cpd1 and SB216873. Compounds were tested using 4-point 2-fold serial dilution, starting from 1 µM or 0.25 µM at 5 different concentration of ATP (200, 100, 50, 33.3, and 25 µM). (c) Reversibility test.
The in vitro enzyme TR-FRET (time-resolved fluorescence energy transfer) assays were performed in 384-well white plates (Greiner) at room temperature (25 °C) using an HTS system from Biomek FX (Beckman Coulter) and a Stella robot. The assay was performed in a final volume of 10 µL in a kinase buffer of 50 mM HEPES, pH 7.5, 1 mM EGTA, 10 mM MgCl2, 2 mM DTT, and 0.01% Tween-20. The 3000 virtually-selected compounds in the 5 mM DMSO stock were diluted into desired concentrations with kinase buffer. A total of 5 µL of GSK3β (Carna Biosciences, 0.5 ng/well) and 2.5 µL of compounds were added to the assay plates and, then, 2.5 µL of the ULight-GS Peptide (Ser641/pSer657, […](pS)ED, #TRF0131 PerkinElmer, 50 nM final concentration)/ATP mixture were added. […] After incubation for 1 h, the fluorescence signal was read in excitation at 320 nm with an emission at 665 nm with the Envision Multilabel Plate Reader (PerkinElmer). Experimental data from dose–response curves were analyzed by nonlinear regression analysis with GraphPad Prism, version 7.00 for Windows, and the IC50 values were obtained. […]

The results in this text go back to PMC9230645, “Discovery of GSK3β Inhibitors through In Silico Prediction-and-Experiment Cycling Strategy, and Biological Evaluation” (Molecules, 2022).

T1 sequence (P49841 whole entry): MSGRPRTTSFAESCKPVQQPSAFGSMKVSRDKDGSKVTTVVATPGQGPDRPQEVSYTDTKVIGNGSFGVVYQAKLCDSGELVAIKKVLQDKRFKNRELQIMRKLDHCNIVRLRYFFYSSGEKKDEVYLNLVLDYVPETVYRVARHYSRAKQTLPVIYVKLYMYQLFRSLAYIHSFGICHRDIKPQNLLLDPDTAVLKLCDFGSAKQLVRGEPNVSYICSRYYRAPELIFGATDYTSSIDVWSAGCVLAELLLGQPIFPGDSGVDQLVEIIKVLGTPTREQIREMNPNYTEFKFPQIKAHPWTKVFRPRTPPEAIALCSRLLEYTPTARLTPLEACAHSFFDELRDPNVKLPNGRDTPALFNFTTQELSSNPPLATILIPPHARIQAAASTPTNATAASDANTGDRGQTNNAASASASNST

In assay [1], `Cn1cc(C2=C(c3ccc(Cl)cc3Cl)C(=O)NC2=O)c2ccccc21` [8 (SB216763), SB216763, reference compound] showed an inhibition at 0.5 µM of 61% and an inhibition at 5 µM of 100%.
Turning to `CCc1nccn1CCCNc1cc(-c2ccc(F)cc2)nc2ccnn12` [Compound 1, N-(3-(2-ethyl-1H-imidazol-1-yl)propyl)-5-(4-fluorophenyl)pyrazolo[1,5-a]pyrimidin-7-amine], in assay [1], at 0.5 µM the inhibition was 100%, the inhibition at 5 µM came out at 100% and the IC50 was 37 ± 6 nM. Besides, in assay [2] (5 ATP concentrations (200, 100, 50, 33.3, 25 µM), read-out: slope inhibition constant K is), the Ki worked out at 41.8 nM. Besides, in assay [2] (versus ATP), the “inhibition pattern of GSK3β-catalyzed phosphorylation” value is reported as “competitive”. In assay [3], the “TOP flash activity induction” value amounted to 3.5 fold. In addition, the enzyme-binding reversibility entry in assay [4] was “reversible”.
In assay [1], `Cc1nc[nH]c1CSCCNc1cc(-c2ccccc2)nc2ccnn12` [Compound 2] showed an inhibition at 0.5 µM of 78%, an inhibition at 5 µM of 100% and an IC50 of 211 ± 55 nM.
In the case of `Cc1c(CNc2cc(-c3ccccc3F)nc3ccnn23)cnn1C` [Compound 4], in assay [1], testing at 0.5 µM gave an inhibition of 57%, the inhibition at 5 µM came to 96% and the IC50 is 347 ± 56 nM.
The matching figures for `COCc1cc(NCc2nnn[nH]2)n2nccc2n1` [Compound 5]: 38%, 95% and 701 ± 118 nM.
In assay [1], `CCc1cc(NCc2scnc2-c2ccccc2)n2nccc2n1` [Compound 6] had an inhibition at 0.5 µM of 45%, an inhibition at 5 µM of 91% and an IC50 of 730 ± 113 nM.
For `Cc1cc(NCCCNc2cccnc2)n2nccc2n1` [Compound 7], in that order: 30%, 90% and 1030 ± 66 nM.
